Assay results published in patent US12123048B2, “Fluorinated 4′-alkylumbelliferyl a-D-glucopyranosides, biological sterilization indicators including the same and methods of using the same” (3M INNOVATIVE PROPERTIES COMPANY, priority 2018, dated 2024).

System: Geobacillus stearothermophilus spores (ATCC 7953)
Test: Fluorescence measurements using enzyme substrates and Geobacillus stearothermophilus spores in LB broth
Assay type: cell-based
Settings: substrate 0.3 mg/mL, 5×10^6 spores, 60° C.
Experimental: Luria-Bertani (LB) broth was prepared by dissolving tryptone (10 g/L), yeast extract (5 g/L), and NaCl (5 g/L) in deionized water. In the examples, 6′-fluoro-4′-methylumbelliferyl α-D-glucopyranoside (0.3 mg/mL) or 5′-fluoro-4′-methylumbelliferyl α-D-glucopyranoside (0.3 mg/mL) was added to the broth. In the comparative examples, 4′-methylumbelliferyl α-D-glucopyranoside (MUG) (0.3 mg/mL) or 6′,8′-Difluoro-4′-methylumbelliferyl α-D-glucopyranoside (0.3 mg/mL) was added to the broth. The pH of the broth was adjusted to either pH 6, pH 7, pH 8, or pH 9 using 0.1 N hydrochloric acid or 1N sodium hydroxide solutions. The broth was passed through a 0.22 micron filter prior to use.
LB broth (pH 6) containing 6′-fluoro-4′-methylumbelliferyl α-D-glucopyranoside (0.3 mg/mL) (enzyme substrate of Example 1) was added to two wells (100 microliters per well) of a black 96-well microtiter plate with optically clear, flat bottom wells (NUNC #165301, Thermo Fisher Scientific, Waltham, MA). A 5 microliter aqueous suspension containing 5×10^6 Geobacillus stearothermophilus spores (ATCC 7953) was added to each well of the microtiter plate. Next, the contents of each well were mixed using a multiple aspiration/delivery sequence with the pipet. […] The top of the plate was covered with an optically clear sealing film (product #4311971, Applied Biosystems Corporation, Foster City, CA). The plate was warmed at 60° C. and shaken in a linear direction. Fluorescence readings (360 nm excitation/450 nm emission at 50% gain) were taken from the bottom of the plate. A reading was taken at an initial time point of 10 seconds and then at +1 minute intervals thereafter. A Synergy Neo2 fluorescence plate reader (BioTek Company, Winooski, VT) was used. In Table 1, the mean fluorescence values detected (RFU) at times of 10 seconds, +5 minutes, +10 minutes, and +30 minutes are reported. The mean fluorescence values detected for the control wells were 978 RFU at 10 seconds; 920 RFU at +5 minutes; 870 RFU at +10 minutes, and 746 RFU at +30 minutes.
(§1) The procedure of Example 3 was followed, with the exception that the LB broth (pH 6) containing 6′-fluoro-4′-methylumbelliferyl α-D-glucopyranoside (0.3 mg/mL) was replaced with LB broth (pH 6) containing 5′-fluoro-4′-methylumbelliferyl-α-D-glucopyranoside (0.3 mg/mL) (enzyme substrate of Example 2). In Table 1, the mean fluorescence values detected (RFU) at times of 10 seconds, +5 minutes, +10 minutes, and +30 minutes are reported. The mean fluorescence values detected for the control wells were 828 RFU at 10 seconds; 784 RFU at +5 minutes; 738 RFU at +10 minutes, and 622 RFU at +30 minutes.
as §1, with “4-methylumbelliferyl α-D-glucopyranoside” for “5′-fluoro-4′-methylumbelliferyl-α-D-glucopyranoside”, “(MUG).” for “(enzyme substrate of Example 2).”, “868” for “828”, “802” for “784”, “756” for “738”, “656” for “622”
The procedure of Example 3 was followed, with the exception that the LB broth (pH 6) containing 6′-fluoro-4′-methylumbelliferyl α-D-glucopyranoside (0.3 mg/mL) was replaced with LB broth (pH 6) containing 6′,8′-difluoro-4′-methylumbelliferyl α-D-glucopyranoside (0.3 mg/mL) (enzyme substrate of Comparative Example A). In Table 1, the mean fluorescence values detected (RFU) at times of 10 seconds, +5 minutes, +10 minutes, and +30 minutes are reported. The mean fluorescence values detected for the control wells were 1,768 RFU at 10 seconds; 1,750 RFU at +5 minutes; 1,743 RFU at +10 minutes, and 1,805 RFU at +30 minutes. […]

[1] = pH 6 LB broth, 360 nm excitation/450 nm emission

Structure (SMILES)	MEASURED FLUORESCENCE, RFU 10 sec [1] [RFU]	MEASURED FLUORESCENCE, RFU +5 min (pH 6 LB broth) [RFU]	MEASURED FLUORESCENCE, RFU +10 min (pH 6 LB broth) [RFU]	MEASURED FLUORESCENCE, RFU +30 min (pH 6 LB broth) [RFU]	MEASURED FLUORESCENCE, RFU 10 sec (pH 7 LB broth) [RFU]	MEASURED FLUORESCENCE, RFU +5 min (pH 7 LB broth) [RFU]	MEASURED FLUORESCENCE, RFU +10 min (pH 7 LB broth) [RFU]	MEASURED FLUORESCENCE, RFU +30 min (pH 7 LB broth) [RFU]	MEASURED FLUORESCENCE, RFU 10 sec (pH 8 LB broth) [RFU]	MEASURED FLUORESCENCE, RFU +5 min (pH 8 LB broth) [RFU]	MEASURED FLUORESCENCE, RFU +10 min (pH 8 LB broth) [RFU]	MEASURED FLUORESCENCE, RFU +30 min (pH 8 LB broth) [RFU]	MEASURED FLUORESCENCE, RFU 10 sec (pH 9 LB broth) [RFU]	MEASURED FLUORESCENCE, RFU +5 min (pH 9 LB broth) [RFU]	MEASURED FLUORESCENCE, RFU +10 min (pH 9 LB broth) [RFU]	MEASURED FLUORESCENCE, RFU +30 min (pH 9 LB broth) [RFU]
Cc1cc(=O)oc2cc(O[C@H]3O[C@H](CO)[C@@H](O)[C@H](O)[C@H]3O)c(F)cc12 [Example 1, 6′-Fluoro-4′-methylumbelliferyl α-D-glucopyranoside]	11764	30536	51188	82334	24718	54317	79851	>100000	11298	32225	61862	>100000	2823	8863	22809	77125
Cc1cc(=O)oc2cc(O[C@H]3O[C@H](CO)[C@@H](O)[C@H](O)[C@H]3O)ccc12 [MUG, 4′-methylumbelliferyl-α-D-glucopyranoside]	1590	3100	5607	15915	3298	7944	15511	41643	3450	9572	21171	64484	1193	3444	9258	48874
Cc1cc(=O)oc2c(F)c(O[C@H]3O[C@H](CO)[C@@H](O)[C@H](O)[C@H]3O)c(F)cc12 [Comparative Example A, 6′,8′-Difluoro-4′-methylumbelliferyl α-D-glucopyranoside]	29807	68823	85625	>100000	32795	67118	89943	>100000	20878	48312	77765	>100000	4119	12620	31290	77404
Cc1cc(=O)oc2cc(O[C@H]3O[C@H](CO)[C@@H](O)[C@H](O)[C@H]3O)cc(F)c12 [Example 2, 5′-Fluoro-4′-methylumbelliferyl α-D-glucopyranoside]	1663	3559	7048	20550	5842	15059	28596	58390	3928	11692	26273	66491	1116	3002	7983	43732
